Among the data in patent publication US9458179B2, “Quinuclidine, 1-azabicyclo[2.2.1]heptane, 1-azabicyclo [3.2.1]octane, and 1-azabicyclo[3.2.2]nonane compounds as alpha-7 nicotinic acetylcholine receptor ligands” (BRISTOL-MYERS SQUIBB COMPANY, priority 2012, dated 2016) are EC50 values, retold here.

SMILES strings stand for the structures.

The target of the first test is T1, α-7 nicotinic ACh receptor ion channel (Rattus norvegicus, UniProt Q05941).
T1 construct: expressed in transfected cells
T1 sequence (Q05941 23-502): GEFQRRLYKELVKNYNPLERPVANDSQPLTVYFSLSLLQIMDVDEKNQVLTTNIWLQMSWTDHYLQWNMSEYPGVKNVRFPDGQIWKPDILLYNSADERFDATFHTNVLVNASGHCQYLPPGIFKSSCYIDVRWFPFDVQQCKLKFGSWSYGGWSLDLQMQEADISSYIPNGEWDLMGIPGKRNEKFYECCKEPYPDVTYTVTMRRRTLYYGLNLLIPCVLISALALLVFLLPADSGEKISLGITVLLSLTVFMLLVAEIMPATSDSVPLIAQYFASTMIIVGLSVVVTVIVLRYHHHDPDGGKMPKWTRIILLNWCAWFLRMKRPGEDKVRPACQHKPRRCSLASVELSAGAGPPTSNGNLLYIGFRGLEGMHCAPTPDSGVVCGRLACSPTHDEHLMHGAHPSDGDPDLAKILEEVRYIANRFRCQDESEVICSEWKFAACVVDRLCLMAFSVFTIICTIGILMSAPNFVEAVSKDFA
Description: Ca2+-sensitive fluorescence-based FLIPR assay of α7 nicotinic receptor channel function (agonist activity). Type of test: cell-based. The note with it: FLIPR α7-HI (EC50, nM), HEK 293 cells, Ca2+ flux. The protocol: II) A Ca^2+-Sensitive, Fluorescence-Based Assay α-7 for Nicotinic Acetylcholine Receptor Channel Function in Mammalian Cells (“FLIPR”).
Lead compounds are evaluated for agonist activity at α-7, α3β4, α4αβ2, and α1β1δ1ε sub-types of nicotinic ACh receptor ion channels expressed in mammalian HEK 293 cells. Agonist potency and efficacy values are determined from kinetic fluorescence Ca^2+ influx measurements made using a 384 well FLIPR (Fluorescence Image Plate Reader). […] In this assay, channel expressing HEK cell lines seeded in 384 well assay plates are loaded with a membrane permeant fluorescent Ca^2+ indicator dye, whose 510 nm green emission signal increases in response to elevation of intracellular Ca^2+ concentration. The basal fluorescence from the cells is monitored in real time, followed by the acute addition of test compounds.
Reagents: The acetomethoxy (AM) ester of the Ca^2+ indicator dye Fluo-4 was obtained from InVitrogen, (Carlsbad, Calif.). Acetylcholine and all buffer constituents were purchased from Sigma Chemical Company, St. Louis, Mo. G418 and Minimal Essential Medium were purchased from InVitrogen Life Technologies, Carlsbad, Calif. Fetal bovine serum was purchased from (InVitrogen, Carlsbad, Calif.).
HEK-293 cells were grown in Minimal Essential Medium containing 10% (v/v) fetal bovine serum at 37° C. in a 5% CO2 incubator. HEK-293 cells stably expressing the ion channels were grown in the same medium with the addition of 500 μg/ml G418.
HEK-293 cells expressing the ion channels of interest were plated in 384 well, black-walled, clear-bottomed, poly-D-lysine coated plates at a density of ˜20,000 cells/well in 20 μl of Minimal Essential Medium containing 10% (v/v) fetal bovine serum and incubated for 2 days at 29° C. in a 5% CO2 incubator. Prior to assay, cells were loaded with the Fluo-4 AM ester. […] Dye loading was allowed to proceed for 90 minutes at room temperature at which time the dye loading solution was removed and replaced with 40 μl/well of Hanks buffer. Cells loaded with dye were loaded onto a FLIPR384 (Molecular Devices, Sunnyvale, Calif.). […] Emission was filtered using a 540+/−30 nm bandpass filter. For evaluation of the effects of test compounds using the Ca^2+ flux assay, compounds to be tested were provided in assay ready plates. For nicotinic receptor ion channel expressing cells, the assay was initiated by the addition of 20 μl/well of Hanks buffer containing test compounds. For all assays, data were collected at 1 Hz for 10 seconds (baseline), at which time the compound containing stimulus buffers are added, and further measurements collected at 0.33 Hz for 3 min.
The statistical robustness of the nicotinic receptor Ca^2+ flux assays is determined from blanks and totals wells. […] The raw fluorescence units data files generated on the FLIPR plate reader are automatically exported and processed by in-house data analysis tools. The reduced percent activation data for each concentration of test compound are fit using MathIQ fitting engine (ID Business Solutions Limited, Surrey, UK). Data were analyzed by fitting maximum amplitudes of change in fluorescence, for Ca^2+ flux for a given condition of test compound. […] Test compound efficacy values (Ymax values) are expressed relative to a maximal response to acetylcholine in the total wells.
In general terms: Calcium flux is commonly read through the fluorescence of an indicator in the cells.
The term EC50 denotes the concentration needed to bring the measured effect to its halfway point. A lower EC50 goes with a more potent agent. `CN1C(Nc2cc3ccccc3cn2)=NCC12CN1CCC2CC1` (stereo not shown) [Example 15] gave a concentration for a half-maximal effect (EC50) of 787 nM.

The test is the same for the next values; noted with them: FLIPR α7-HI (EC50, nM), HEK 293 cells, Ca2+ flux; Table 1, activity class.
In turn, `Brc1ccc2nc(NC3=NCC4(CN5CCC4CC5)N3)sc2n1` (stereo not shown) [Example 49] yielded a 50% effective concentration (EC50) of 100 to 1000 nM.
The same measure, in the same setting: the same measure for `Clc1ccc(NC2=NCC3(CN4CCC3CC4)N2)nc1` (stereo not shown) [Example 13]: 1000 to 100000 nM.
Still for that read-out and setting: as for `CN1C(Nc2nc3ccccc3s2)=NCC12CN1CCC2CC1` (stereo not shown) [Example 12], the figure is 100 to 1000 nM; as for `Fc1cccc2sc(NC3=NCC4(CN5CCC4CC5)N3)nc12` (stereo not shown) [Example 55], less than 100 nM; as for `Cc1cnc2nc(NC3=NCC4(CN5CCC4CC5)N3)sc2n1` (stereo not shown) [Example 41], 1000 to 100000 nM.
Same read-out and setting: as for `CN1C(Nc2nc3cc(Cl)ccc3o2)=NCC12CN1CCC2CC1` (stereo not shown) [Example 58], the figure is 100 to 1000 nM.
`Clc1ccc2nc(NC3=NCC4(CN5CCC4CC5)N3)sc2n1` (single isomer, unassigned) [Example 28b]: the EC50 lay in the range of 1000 to 100000 nM.
The same measure, in the same setting: the same measure for `CN1C(Nc2cc3ccccc3cn2)=NCC12CN1CCC2CC1` (stereo not shown) [Example 15]: 100 to 1000 nM; for `Cc1ccc2nc(NC3=NCC4(CN5CCC4CC5)N3)oc2n1` (stereo not shown) [Example 62, N-(3,5-Dihydro-1′-azaspiro[imidazole-4,3′-bicyclo[2.2.2]octane]-2-yl)-5-methyloxazolo[5,4-b]pyridin-2-amine]: 100 to 1000 nM; for `c1ccc(COc2ccc3nc(NC4=NC5(CN4)CN4CCC5CC4)sc3n2)cc1` (stereo not shown) [Example 39, N-(5-(benzyloxy)[1,3]thiazolo[5,4-b]pyridin-2-yl)-1′,5′-dihydrospiro[4-azabicyclo[2.2.2]octane-2,4′-imidazol]-2′-amine]: greater than 1e+06 nM.
On the same count and under the same terms, as for `CN1C(Nc2ncc(-c3ccccc3)s2)=NCC12CN1CCC2CC1` (stereo not shown) [Example 5], the figure is 1000 to 100000 nM; as for `Cc1nc(C)nc(NC2=NCC3(CN4CCC3CC4)N2)n1` (stereo not shown) [Example 43], 1000 to 100000 nM.
On the same count and under the same terms, as for `c1ccc2sc(NC3=NCC4(CN5CCC4CC5)N3)nc2c1` (stereo not shown) [Example 11], the figure is less than 100 nM; as for `Cc1ccc2c(NC3=NCC4(CN5CCC4CC5)N3)ncnn12` (stereo not shown) [Example 64], 100 to 1000 nM; as for `CN1C(Nc2ncnc3ccccc23)=NCC12CN1CCC2CC1` (stereo not shown) [Example 24], 1000 to 100000 nM.
Regarding `CN1C(Nc2nc3ccccc3o2)=NCC12CN1CCC2CC1` (stereo not shown) [Example 60], the EC50 was in the range of 100 to 1000 nM.
Still for that read-out and setting: as for `CN1C(Nc2nc3ccc(Br)nc3s2)=NCC12CN1CCC2CC1` (stereo not shown) [Example 50], the figure is 1000 to 100000 nM; as for `c1cnc2sc(NC3=NCC4(CN5CCC4CC5)N3)nc2c1` (stereo not shown) [Example 56], less than 100 nM; as for `c1ccc2oc(NC3=NCC4(CN5CCC4CC5)N3)nc2c1` (stereo not shown) [Example 59], less than 100 nM.
Still for that read-out and setting: as for `CN1C(Nc2ccc(Cl)cn2)=NCC12CN1CCC2CC1` (stereo not shown) [Example 14], the figure is 1000 to 100000 nM; as for `Clc1ccc2nc(NC3=NCC4(CN5CCC4CC5)N3)sc2n1` (single isomer, unassigned) [Example 28a], less than 100 nM; as for `CN1C(Nc2ncc3ccccc3n2)=NCC12CN1CCC2CC1` (stereo not shown) [Example 27], 1000 to 100000 nM.
Molecule `CCN1C(Nc2ncc(-c3ccccc3)s2)=NCC12CN1CCC2CC1` (stereo not shown) [Example 6] had an EC50 of 1000 to 100000 nM.
On the same count and under the same terms, as for `COc1ccc2nc(NC3=NCC4(CN5CCC4CC5)N3C)sc2n1` (stereo not shown) [Example 47], the figure is 100 to 1000 nM; as for `Clc1cccc2nc(NC3=NCC4(CN5CCC4CC5)N3)sc12` (stereo not shown) [Example 53], 100 to 1000 nM.
The molecule `Cc1ccc2nc(NC3=NCC4(CN5CCC4CC5)N3)oc2c1` (stereo not shown) [Example 8a] yielded an EC50 of less than 100 nM.
Same read-out and setting: as for `CN1C(Nc2ccc(Cl)nn2)=NCC12CN1CCC2CC1` (stereo not shown) [Example 26], the figure is 100 to 1000 nM; as for `Clc1ccc2c(NC3=NCC4(CN5CCC4CC5)N3)ncnn12` (stereo not shown) [Example 65, N-(7-Chloropyrrolo[1,2-f][1,2,4]triazin-4-yl)-3,5-dihydro-1′-azaspiro[imidazole-4,3′-bicyclo[2.2.2]octan]-2-amine], 100 to 1000 nM.
The same measure, in the same setting: as for `CN1C(Nc2nc3ccccn3n2)=NCC12CN1CCC2CC1` (stereo not shown) [Example 35], the figure is 1000 to 100000 nM; as for `CCN1C(Nc2nc3ccc(OC)cc3s2)=NCC12CN1CCC2CC1` (stereo not shown) [Example 3], 100 to 1000 nM.
For `Cc1ccc2nc(NC3=NCC4(CN5CCC4CC5)N3)sc2c1` (stereo not shown) [Example 63, N-(3,5-dihydro-1′-azaspiro[imidazole-4,3′-bicyclo[2.2.2]octane]-2-yl)-6-methylbenzo[d]thiazol-2-amine], the EC50 was in the range of 100 to 1000 nM.
Same read-out and setting: the same measure for `Clc1ccc2oc(NC3=NCC4(CN5CCC4CC5)N3)nc2c1` (stereo not shown) [Example 57]: 100 to 1000 nM.
On the same count and under the same terms, the same measure for `Clc1cnc(NC2=NCC3(CN4CCC3CC4)N2)cn1` (stereo not shown) [Example 7, N-(5-Chloro-2-pyrazinyl)-1′,5′-dihydrospiro[4-azabicyclo[2.2.2]octane-2,4′-imidazol]-2′-amine]: 100 to 1000 nM.
`COc1ccc2nc(NC3=NCC4(CN5CCC4CC5)N3C)sc2c1` (stereo not shown) [Example 2]: the EC50 lay in the range of 100 to 1000 nM.
For the molecule `c1ccc2sc(NC3=NCC4(CN5CCC4CC5)N3)nc2c1` (single isomer, unassigned) [Example 11b], the EC50 is 1000 to 100000 nM.
For `COc1cc(NC2=NCC3(CN4CCC3CC4)N2C)ncn1` (stereo not shown) [Example 21], the EC50 was 100 to 1000 nM.

Still in this test, the particulars now being: FLIPR α7-HI (EC50, nM), HEK 293 cells, Ca2+ flux; Table 2, activity class column.
`COc1ccc2nc(NC3=NC4(CO3)CN3CCC4CC3)sc2c1` (stereo not shown) [Example 67, N-(6-Methoxybenzo[d]thiazol-2-yl)-5H-1′-azaspiro[oxazole-4,3′-bicyclo[2.2.2]octan]-2-amine] had an EC50 of 1000 to 100000 nM.

Staying with this test, now noted: FLIPR α7-HI (EC50, nM), HEK 293 cells, Ca2+ flux; Table 3.
Molecule `c1ccc(-c2cnc(NC3=NCCC4(CN5CCC4CC5)O3)s2)cc1` (stereo not shown) [Example 71] showed an EC50 of 87 nM.
`c1csc(NC2=NCCC3(CN4CCC3CC4)O2)n1` (stereo not shown) [Example 73] registered an EC50 of 4530 nM.
On the same count and under the same terms, the same measure for `c1ccc2cc(NC3=NCCC4(CN5CCC4CC5)O3)ncc2c1` (stereo not shown) [Example 76]: 264 nM.

Still in this test, the particulars now being: FLIPR α7-HI (EC50, nM), HEK 293 cells, Ca2+ flux; Table 3, activity class.
On to `c1ccc2cc(NC3=NCCC4(CN5CCC4CC5)O3)ncc2c1` (single isomer, unassigned) [Example 76b], for which the EC50 is greater than 1e+06 nM.
Same read-out and setting: as for `c1ccc(-c2cnc(NC3=NCCC4(CN5CCC4CC5)O3)s2)cc1` (stereo not shown) [Example 71], the figure is less than 100 nM; as for `c1ccc2c(NC3=NCCC4(CN5CCC4CC5)O3)ncnc2c1` (stereo not shown) [Example 82], 100 to 1000 nM.
On to `Clc1ccc(NC2=NCCC3(CN4CCC3CC4)O2)nn1` (stereo not shown) [Example 83], for which the concentration for a half-maximal effect (EC50) lay in the range of 1000 to 100000 nM.
Still for that read-out and setting: the same measure for `c1ccc2sc(NC3=NCCC4(CN5CCC4CC5)O3)nc2c1` (stereo not shown) [Example 74]: 100 to 1000 nM; for `Brc1ccc2nc(NC3=NCCC4(CN5CCC4CC5)O3)sc2n1` (stereo not shown) [Example 87]: 1000 to 100000 nM; for `c1csc(NC2=NCCC3(CN4CCC3CC4)O2)n1` (stereo not shown) [Example 73]: 1000 to 100000 nM.
`Clc1cnc(NC2=NCCC3(CN4CCC3CC4)O2)nc1` (stereo not shown) [Example 78] showed a half-maximal effective concentration (EC50) of 1000 to 100000 nM.
On the same count and under the same terms, as for `COc1ncc2nc(NC3=NCCC4(CN5CCC4CC5)O3)sc2n1` (stereo not shown) [Example 79, N-(5-Methoxythiazolo[5,4-d]pyrimidin-2-yl)-4,5-dihydro-1′-azaspiro[[1,3]oxazine-6,3′-bicyclo[2.2.2]octan]-2-amine], the figure is 1000 to 100000 nM.
Regarding `c1ccc2cc(NC3=NCCC4(CN5CCC4CC5)O3)ncc2c1` (stereo not shown) [Example 76], the concentration giving a half-maximal response (EC50) was 100 to 1000 nM.

The same test, now with this note: FLIPR α7-HI (EC50, nM), HEK 293 cells, Ca2+ flux; Table 4, activity class.
In turn, `COc1ccc2nc(/N=C3\OC4(CN5CCC4CC5)CN3C)sc2c1` (stereo not shown) [Example 89, (Z)-6-Methoxy-N-(3-methyl-1′-azaspiro[oxazolidine-5,3′-bicyclo[2.2.2]octane]-2-ylidene)benzo[d]thiazol-2-amine] displayed a concentration giving a half-maximal response (EC50) greater than 1e+06 nM.
